Source: patent US10555922B2, “Method of treating a dopamine related disorder in a subject by administering levodopa, in combination with a dopamine decarboxylase inhibitor and a catechol-o-methyltransferase inhibitor” (priority 2015, dated 2020)

How the values were obtained:
[1] = cited from earlier work
[2] = Stabilization experiments with LECIGON, accelerated stability study at 25° C. for 12 days; type: physicochemical; details: all combinations of Table 6
Protocol: HPLC—Agilent 1100 with DAD detector and cooled injector; OpenLAB CDS Chemstation C.01.05 (Agilent Technologies Inc., Santa Clara, Calif., U.S.A.).
As reference product, LECIGON™ having no stabilizing modification was used.
The following stabilizing modifications of the LECIGON™ composition were tested, the corresponding experimental compositions (“Exp.”) in Table 4 above being given within parentheses:
• a) 0.1% ascorbic acid (Exp. 5) • b) 0.5% citrate buffer (Exp. 12) • c) 0.5% citric acid (Exp. 4) 3. Removal of oxygen • nitrogen gas (Exp. 15) 4. Removal of metal ions • 0.05% EDTA (Exp. 3) 5. Combination of reduced pH and anti-oxidant (Exp. 13) 6. Combination of anti-oxidant and removal of oxygen • a) 0.1% ascorbic acid and 0.05% EDTA (Exp. 14) • b) 0.5% citric acid and 0.05% EDTA (Exp. 10) 7. Enclosure in an aluminium bag (Exp. 8).
The results are ranked with respect to reduction of hydrazine (DHPA, RRT 7.1). […] Levodopa was stable in all combinations and is therefore not included in the table. In the table, “Carb” is carbidopa, and “Ent” is entacapone.

[3] = cited from earlier work; remark: listed apart in the source
[4] = intravenous administration (3 mg/kg); cited from earlier work

Compound	solubility in water [1]	Stability of levodopa in the gel combinations [2]	metabolized to dopamine before levodopa reaches the brain ([3]; intake of levodopa alone)	bioavailability ([3]; levodopa via DUODOPA gel, same as in a tablet)	elimination half-life (t1/2β) [4]
C[C@@](Cc1ccc(O)c(O)c1)(NN)C(=O)O [Carbidopa, (−)-L-α-hydrazino-α-methyl-β-(3,4-dihydroxybenzene) propanoic acid monohydrate]	slightly soluble in water				
N[C@@H](Cc1ccc(O)c(O)c1)C(=O)O [Levodopa, (−)-L-α-amino-β-(3,4-dihydroxybenzene) propanoic acid]	slightly soluble in water	stable	more than 90%	81-98%	
Cc1ccc(C(=O)c2cc(O)c(O)c([N+](=O)[O-])c2)cc1 [Tolcapone, (3,4-Dihydroxy-5-nitrophenyl)(4-methylphenyl)methanone]					2.9 h
